Data from patent publication US20020147177A1, “Formulation of artemisinin” (priority 2001, published 2002).
≈ marks a conversion by molar mass, not a printed value.

Assay: Solubility in water, shaken five days, HPLC
Assay type: physicochemical
Conditions: thermodynamic from solid, room temperature (25° C.)
Procedure: […] of each of the complexes and artemisinin crystals were separately shaken in 25 ml of water maintained at room temperature (25° C.) for five days. The solution was then filtered through a 0.2 μu membrane filter and suitably diluted before analysis. An analysis of the drug concentration in the solution was determined by high performance liquid chromatography using a method reported by Chan et al (1997).

Compound: C[C@@H]1CC[C@H]2[C@@H](C)C(=O)O[C@@H]3O[C@@]4(C)CC[C@@H]1[C@]32OO4 [artemisinin crystals, artemisinin]
- solubility at 5 days: 55.7 ± 1.75 µg/mL (≈ 197 µM)
